# What was measured:
# Test in all cases: cell viability (% survival relative to DMSO control, bortezomib = 0%); higher = less cytotoxic
# Conditions in all cases: 72 h
# HEL = system: HEL
# Outline: (§1)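 Reported values are percent survival from duplicate wells, averaged. Fifteen myeloid leukaemia cell lines were treated in 384-well plates with compounds at 1, 10, 100, 1000 or 10000 nM for 72 h at 37 °C in 5% CO2. Signals from CellTiter-Glo luminescence were scaled with vehicle as 100% and a 10 µM positive control as 0%.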
# MV4-11 = system: MV4-11
# Outline: as §1
# Mono-Mac-6 = system: Mono-Mac-6
# Outline: as §1
# NOMO-1 = system: NOMO-1
# Outline: as §1
SMILES,cell viability (HEL; 1 nM),cell viability (HEL; 10 nM),cell viability (HEL; 100 nM),cell viability (HEL; 1000 nM),cell viability (HEL; 10000 nM),cell viability (MV4-11; 1 nM),cell viability (MV4-11; 10 nM),cell viability (MV4-11; 100 nM),cell viability (MV4-11; 1000 nM),cell viability (MV4-11; 10000 nM),cell viability (Mono-Mac-6; 1 nM),cell viability (Mono-Mac-6; 10 nM),cell viability (Mono-Mac-6; 100 nM),cell viability (Mono-Mac-6; 1000 nM),cell viability (Mono-Mac-6; 10000 nM),cell viability (NOMO-1; 1 nM),cell viability (NOMO-1; 10 nM),cell viability (NOMO-1; 100 nM),cell viability (NOMO-1; 1000 nM),cell viability (NOMO-1; 10000 nM)
Clc1ccc2c(c1Cl)CNCC2,100%,111%,90.9%,107%,82.4%,99.7%,114%,96.3%,114%,91.6%,95.3%,103%,104%,106%,77.4%,95.4%,100%,101%,102%,90.9%
O=C(O)C(S)=Cc1c[nH]c2ccc(F)cc12,102%,103%,95.4%,94%,101%,96.2%,97.6%,81.7%,103%,83.6%,104%,94.7%,93.5%,74.2%,74.1%,103%,97.9%,107%,116%,94.8%
CC(C)Cc1sc(N)nc1-c1ccc(P(=O)(O)O)o1,95.3%,93.1%,118%,109%,85.5%,102%,101%,113%,101%,87.3%,97.6%,85.3%,95.2%,101%,86.6%,97.7%,96.9%,98%,99.5%,83.9%
Cl.OC[C@H]1NC[C@@H](O)[C@@H](O)[C@@H]1O [1-Deoxymannojirimycin hydrochloride],102%,83.2%,112%,119%,86.1%,102%,92.2%,99.3%,105%,80.8%,108%,89.9%,109%,87.2%,96.2%,103%,89.9%,104%,99.3%,92.1%
CN(C)c1nc(O)c2[nH]cnc2n1 [2-Dimethylamino-6-hydroxypurine],105%,85.3%,114%,106%,84.8%,101%,98.8%,97.2%,102%,89.8%,97.2%,100%,86.9%,99.4%,113%,101%,95.9%,108%,102%,105%
"O=C(O)c1cc2sccc2[nH]1 [4H-thieno[3,2-b]pyrrole-5-carboxylic acid]",120%,106%,97.5%,93.5%,108%,107%,93%,93.2%,92.9%,96.8%,104%,92.6%,99.5%,92.6%,101%,105%,97.8%,98.3%,106%,110%

# From the supplement of paper PMC8671470
